From patent publication US6355799B1, “Substituted benzene compounds, process for their preparation, and herbicidal and defoliant compositions containing them” (ISK Americas Incorporated, priority 1997, dated 2002)

Key:
Format in all cases: in vivo
[1] = system: redroot pigweed (Amaranthus retroflexus, AMARE); test: Pre-emerge test, greenhouse herbicide activity screening; conditions: pre-emerge, 14 days after application, scale 0-100
Procedure, shortened: (§1)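 Plants grown in 10 cm pots of sandy loam mix received acetone-dissolved compounds through a moving flat-fan nozzle. Doses ranged from 15 to 1000 g ai/ha. Pre-emerge pots were seeded one day earlier, post-emerge pots 8–21 days earlier. Fourteen days on, each pot was graded 0–100 for damage.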

[2] = system: barnyardgrass (Echinochloa crus-galli, ECHCG); test: as above; conditions: pre-emerge, 14 days after application, scale 0-100
Procedure, shortened: (§2)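 Rating: 0–100 visual injury, 14 DAA. Application: acetone, 187 l/ha, 15–1000 g ai/ha, flat-fan track sprayer with nozzle 40–45 cm above soil or canopy. Post-emerge runs used 0.25% v/v surfactant on 2–3 leaf plants.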

[3] = system: johnsongrass (Sorghum halepense, SORHA); test: as above; conditions: pre-emerge, 14 days after application, scale 0-100
Procedure, shortened: as §2

[4] = system: green foxtail (Setaria viridis, SETVI); test: as above; conditions: pre-emerge, 14 days after application, scale 0-100
Procedure, shortened: as §2

[5] = system: velvetleaf (Abutilon theophrasti, ABUTH); test: as above; conditions: pre-emerge, 14 days after application, scale 0-100
Procedure, shortened: as §2

[6] = system: ivyleaf morningglory (Ipomoea hederacea, IPOHE); test: as above; conditions: pre-emerge, 14 days after application, scale 0-100
Procedure, shortened: as §2

[7] = system: large crabgrass (Digitaria sanguinalis, DIGSA); test: as above; conditions: pre-emerge, 14 days after application, scale 0-100
Procedure, shortened: as §2

[8] = system: sicklepod (Cassia obtusifolia, CASOB); test: as above; conditions: pre-emerge, 14 days after application, scale 0-100
Procedure, shortened: as §2

[9] = system: lambsquarters (Chenopodium album, CHEAL); test: as above; conditions: pre-emerge, 14 days after application, scale 0-100
Procedure, shortened: as §2

[10] = system: barnyardgrass (Echinochloa crus-galli, ECHCG); test: Post-emerge test, greenhouse herbicide activity screening; conditions: post-emerge, 14 days after application, rating scale 0-100
Procedure, shortened: as §1

[11] = system: johnsongrass (Sorghum halepense, SORHA); test: as above; conditions: post-emerge, 14 days after application, rating scale 0-100
Procedure, shortened: as §1

[12] = system: green foxtail (Setaria viridis, SETVI); test: as above; conditions: post-emerge, 14 days after application, rating scale 0-100
Procedure, shortened: as §1

[13] = system: velvetleaf (Abutilon theophrasti, ABUTH); test: as above; conditions: post-emerge, 14 days after application, rating scale 0-100
Procedure, shortened: as §1

[14] = system: ivyleaf morningglory (Ipomoea hederacea, IPOHE); test: as above; conditions: post-emerge, 14 days after application, rating scale 0-100
Procedure, shortened: as §1

[15] = system: redroot pigweed (Amaranthus retroflexus, AMARE); test: as above; conditions: post-emerge, 14 days after application, rating scale 0-100
Procedure, shortened: as §1

[16] = system: large crabgrass (Digitaria sanguinalis, DIGSA); test: as above; conditions: post-emerge, 14 days after application, rating scale 0-100
Procedure, shortened: as §1

[17] = system: sicklepod (Cassia obtusifolia, CASOB); test: as above; conditions: post-emerge, 14 days after application, rating scale 0-100
Procedure, shortened: as §1

[18] = system: lambsquarters (Chenopodium album, CHEAL); test: as above; conditions: post-emerge, 14 days after application, rating scale 0-100
Procedure, shortened: as §1

[19] = system: field corn (Zea mays L., var. Dekalb 535, CORN); test: Pre-emerge test, crop safety; conditions: pre-emerge, 14 days after application, scale 0-100
Procedure, shortened: (§3)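 Applied at 15–1000 g ai/ha from acetone in 187 l/ha spray volume. Post-emergence applications included 0.25% v/v non-ionic surfactant and reached plants sown 8–21 days before. Pre-emergence applications were incorporated by surface watering. Efficacy or crop damage was rated on a 0–100 scale after 14 days.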

[20] = system: upland rice (Oryza sp., var. Tebonnet, RICE); test: Pre-emerge test, crop safety; conditions: pre-emerge, 14 days after application, scale 0-100
Procedure, shortened: as §3

[21] = system: field corn (Zea mays L., var. Dekalb 535, CORN); test: Post-emerge test, crop safety; conditions: post-emerge, 14 days after application, rating scale 0-100
Procedure, shortened: as §1

[22] = system: upland rice (Oryza sp., var. Tebonnet, RICE); test: Post-emerge test, crop safety; conditions: post-emerge, 14 days after application, rating scale 0-100
Procedure, shortened: as §1

## COc1c(Br)cc(F)c(-n2c(=O)cc(C(F)(F)F)n(C)c2=O)c1NC(=O)C=Cc1ccccc1 [2-175]
[1]; 63 g ai/ha
  phytotoxicity rating AMARE: 100
[1]; 250 g ai/ha
  phytotoxicity rating AMARE: 100
[2]; 63 g ai/ha
  phytotoxicity rating ECHCG: 0
[2]; 250 g ai/ha
  phytotoxicity rating ECHCG: 40
[3]; 63 g ai/ha
  phytotoxicity rating SORHA: 0
[3]; 250 g ai/ha
  phytotoxicity rating SORHA: 30
[4]; 63 g ai/ha
  phytotoxicity rating SETVI: 0
[4]; 250 g ai/ha
  phytotoxicity rating SETVI: 60
[5]; 63 g ai/ha
  phytotoxicity rating ABUTH: 100
[5]; 250 g ai/ha
  phytotoxicity rating ABUTH: 100
[6]; 63 g ai/ha
  phytotoxicity rating IPOHE: 70
[6]; 250 g ai/ha
  phytotoxicity rating IPOHE: 50
[7]; 63 g ai/ha
  phytotoxicity rating DIGSA: 0
[7]; 250 g ai/ha
  phytotoxicity rating DIGSA: 60
[8]; 63 g ai/ha
  phytotoxicity rating CASOB: 30
[8]; 250 g ai/ha
  phytotoxicity rating CASOB: 30
[9]; 63 g ai/ha
  phytotoxicity rating CHEAL: 100
[9]; 250 g ai/ha
  phytotoxicity rating CHEAL: 100
[10]; 63 g ai/ha
  ECHCG phytotoxicity rating: 0
[10]; 250 g ai/ha
  ECHCG phytotoxicity rating: 20
[11]; 63 g ai/ha
  SORHA phytotoxicity rating: 0
[11]; 250 g ai/ha
  SORHA phytotoxicity rating: 10
[12]; 63 g ai/ha
  SETVI phytotoxicity rating: 0
[12]; 250 g ai/ha
  SETVI phytotoxicity rating: 20
[13]; 63 g ai/ha
  ABUTH phytotoxicity rating: 100
[13]; 250 g ai/ha
  ABUTH phytotoxicity rating: 100
[14]; 63 g ai/ha
  IPOHE phytotoxicity rating: 100
[14]; 250 g ai/ha
  IPOHE phytotoxicity rating: 100
[15]; 63 g ai/ha
  AMARE phytotoxicity rating: 100
[15]; 250 g ai/ha
  AMARE phytotoxicity rating: 100
[16]; 63 g ai/ha
  DIGSA phytotoxicity rating: 0
[16]; 250 g ai/ha
  DIGSA phytotoxicity rating: 10
[17]; 63 g ai/ha
  CASOB phytotoxicity rating: 100
[17]; 250 g ai/ha
  CASOB phytotoxicity rating: 100
[18]; 63 g ai/ha
  CHEAL phytotoxicity rating: 100
[18]; 250 g ai/ha
  CHEAL phytotoxicity rating: 100
[19]; 63 g ai/ha
  phytotoxicity rating CORN (crop damage): 0
[19]; 250 g ai/ha
  phytotoxicity rating CORN (crop damage): 0
[20]; 63 g ai/ha
  phytotoxicity rating RICE (crop damage): 20
[20]; 250 g ai/ha
  phytotoxicity rating RICE (crop damage): 40
[21]; 63 g ai/ha
  CORN phytotoxicity rating (crop damage): 10
[21]; 250 g ai/ha
  CORN phytotoxicity rating (crop damage): 10
[22]; 63 g ai/ha
  RICE phytotoxicity rating (crop damage): 50
[22]; 250 g ai/ha
  RICE phytotoxicity rating (crop damage): 80

## COc1c(Br)cc(F)c(-n2c(=O)cc(C(F)(F)F)n(C)c2=O)c1N(C(=O)C=Cc1ccccc1)C(=O)C=Cc1ccccc1 [2-176]
[1]; 63 g ai/ha
  phytotoxicity rating AMARE: 50
[1]; 250 g ai/ha
  phytotoxicity rating AMARE: 90
[2]; 63 g ai/ha
  phytotoxicity rating ECHCG: 0
[2]; 250 g ai/ha
  phytotoxicity rating ECHCG: 0
[3]; 63 g ai/ha
  phytotoxicity rating SORHA: 0
[3]; 250 g ai/ha
  phytotoxicity rating SORHA: 0
[4]; 63 g ai/ha
  phytotoxicity rating SETVI: 0
[4]; 250 g ai/ha
  phytotoxicity rating SETVI: 20
[5]; 63 g ai/ha
  phytotoxicity rating ABUTH: 0
[5]; 250 g ai/ha
  phytotoxicity rating ABUTH: 70
[6]; 63 g ai/ha
  phytotoxicity rating IPOHE: 0
[6]; 250 g ai/ha
  phytotoxicity rating IPOHE: 40
[7]; 63 g ai/ha
  phytotoxicity rating DIGSA: 0
[7]; 250 g ai/ha
  phytotoxicity rating DIGSA: 20
[8]; 63 g ai/ha
  phytotoxicity rating CASOB: 0
[8]; 250 g ai/ha
  phytotoxicity rating CASOB: 0
[9]; 63 g ai/ha
  phytotoxicity rating CHEAL: 90
[9]; 250 g ai/ha
  phytotoxicity rating CHEAL: 100
[10]; 63 g ai/ha
  ECHCG phytotoxicity rating: 0
[10]; 250 g ai/ha
  ECHCG phytotoxicity rating: 0
[11]; 63 g ai/ha
  SORHA phytotoxicity rating: 0
[11]; 250 g ai/ha
  SORHA phytotoxicity rating: 0
[12]; 63 g ai/ha
  SETVI phytotoxicity rating: 0
[12]; 250 g ai/ha
  SETVI phytotoxicity rating: 0
[13]; 63 g ai/ha
  ABUTH phytotoxicity rating: 50
[13]; 250 g ai/ha
  ABUTH phytotoxicity rating: 90
[14]; 63 g ai/ha
  IPOHE phytotoxicity rating: 70
[14]; 250 g ai/ha
  IPOHE phytotoxicity rating: 95
[15]; 63 g ai/ha
  AMARE phytotoxicity rating: 100
[15]; 250 g ai/ha
  AMARE phytotoxicity rating: 100
[16]; 63 g ai/ha
  DIGSA phytotoxicity rating: 0
[16]; 250 g ai/ha
  DIGSA phytotoxicity rating: 0
[17]; 63 g ai/ha
  CASOB phytotoxicity rating: 10
[17]; 250 g ai/ha
  CASOB phytotoxicity rating: 30
[18]; 63 g ai/ha
  CHEAL phytotoxicity rating: 80
[18]; 250 g ai/ha
  CHEAL phytotoxicity rating: 90
[19]; 63 g ai/ha
  phytotoxicity rating CORN (crop damage): 0
[19]; 250 g ai/ha
  phytotoxicity rating CORN (crop damage): 0
[20]; 63 g ai/ha
  phytotoxicity rating RICE (crop damage): 0
[20]; 250 g ai/ha
  phytotoxicity rating RICE (crop damage): 0
[21]; 63 g ai/ha
  CORN phytotoxicity rating (crop damage): 0
[21]; 250 g ai/ha
  CORN phytotoxicity rating (crop damage): 5
[22]; 63 g ai/ha
  RICE phytotoxicity rating (crop damage): 10
[22]; 250 g ai/ha
  RICE phytotoxicity rating (crop damage): 30
